Where “and” joins values, the source holds several entries; their conditions need not be identical. Equal entries are not always repeated. Bridge positions count the residues as written; N and C are the ends. Square brackets hold non-standard residues; d marks the D form. Ends that are not written are not given here. Peptide text beside a SMILES is read from it. Phe(4-CF3) = N[C@@H](Cc1ccc(C(F)(F)F)cc1)C(=O)O; Dmt = Cc1cc(O)cc(C)c1C[C@H](N)C(=O)O
Assays:
[1] = system: MOP; parameters: method as in PMID 31351108; conditions: Gαi2 and GαoA; ref [43]; cited from earlier work
[2] = molecular target: T1, CHO-K1 OPRM1 (μ-opioid receptor (MOP))/β-arrestin 2 (Homo sapiens, UniProt P35372); test: PathHunter enzyme complementation assay, β-arrestin 2 recruitment; assay type: cell-based; conditions: for EC50 / %Stim: CHO-K1 OPRM1 β-arrestin 2 cell line; for EC50: mean ± SEM, n = 5; for %Stim: normalized to the maximum stimulation caused by EM-1 (100%)
T1 construct: host or cells: CHO-K1 (CHO-K1 OPRM1 β-arrestin cell line)
Protocol: Since in most studies reported in the introduction, β-arrestin 2 was used, for easy comparison we decided to characterize this isoform, despite being the minority as compared to β-arrestin 1 in most cells, including neurons. The use of β-arrestin 2 is supported by its similarity in opioid receptor binding with β-arrestin 1 [37, 50].
Measurement of β-arrestin 2 recruitment. β-arrestin 2 recruitment at MOP was measured using the DiscoveRxPathHunter® β-arrestin kit (DiscoveRx, Fremont, CA, USA) according to manufacturer’s recommendations and previously published procedure. CHO cells were engineered to co-express the ProLink™ (PK) tagged GPCR (GPCR-PK) and the enzyme acceptor (EA) tagged β-arrestin 2 (β-arrestin-EA) (CHO-K1 OPRM1 β-arrestin cell line). Activation of the GPCR-PK induces β-arrestin-EA recruitment, forcing complementation of the two β-galactosidase enzyme fragments (EA and PK). The resulting functional enzyme hydrolyzes substrate to generate a chemiluminescent signal which was measured by luminometry. Briefly, 20 μL of PathHunter cells as taken from the kit were seeded in each well and incubated overnight at 37 °C. […] Detection Reagent Working Solution (12 μL) was added and incubation was continued for 60 min at rt. Chemiluminescent signal was read using a Viewlux imaging plate reader (PerkinElmer, Cambridge, MA, USA).

[3] = system: DPP IV; parameters: method as in ref [44] (F-81), [45] (C-33); conditions: ref [44] (F-81), [45] (C-33); cited from earlier work
[4] = parameters: method as in ref [44] (F-81), [45] (C-33); conditions: ref [44] (F-81), [45] (C-33); cited from earlier work
[5] = molecular target: T2, human MOP (Homo sapiens, UniProt P35372); test: [35S]GTPγS binding assay (G-protein activation) in CHO-hMOP cell membranes; assay type: biochemical; conditions: for %Stim: efficacy normalized to the maximum stimulation caused by EM-1
T2 construct: originator Prof L. Toll, SRI International; host or cells: CHO (CHO-hMOP), membranes
Protocol: Herein, for the first time the biased agonism of F-81 and C-33 is analyzed by [^35S]GTPγS binding assay (Table 1) and PathHunter enzyme complementation assay (Table 2). [^35S]GTPγS binding assay, which characterizes ligand-driven G protein activation, was performed in CHO cells stably expressing the human MOP [46, 47].
[^35S]GTPγS binding assay. CHO cells stably expressing the human MOP receptor (in brief, CHO-hMOP cells, provided by Prof G. Calo, University of Ferrara; originator was Prof L. Toll, SRI International, Menlo Park, CA, USA) were grown in Hams F12 containing streptomycin (100 μg/mL), fungizone 2.5 μg/mL), penicillin (100 IU/mL) and 10% fetal bovine serum (FBS). Stock medium containing G418 (200 μg/mL) was used to maintain CHO-hMOP expression. Experiments were performed according to the literature. Cell membranes (5–10 µg) were incubated at 30 °C with 0.05 nM [^35S]GTPγS (PekinElmer, 549 Albany St, Boston, MA 02118, US), 10 µM GDP and various concentrations of a tested peptide in the final volume of 1 mL, for 60 min. Non-specific binding was determined using 10 µM GTPγS, and the basal binding was determined in the absence of a tested peptide. Incubations were terminated by rapid filtration through the GF/B Whatman glass fiber strips and the bound radioactivity was measured in a liquid scintillation counter. Five independent experiments were carried out. The data were analyzed by a nonlinear least square regression analysis computer program Graph Pad PRISM 5.0 (GraphPad Software Inc., San Diego, CA, USA).

[6] = molecular target: MOP; parameters: method as in ref [44] (F-81), [45] (C-33); conditions: [3H]DAMGO, human opioid receptor membranes; ref [44] (F-81), [45] (C-33); cited from earlier work
[7] = system: MOP/β-arrestin 2; conditions: cited from earlier work; for MOP/β-arrestin 2 pEC50 (CL95%): ref [44] (EM-2, F-81)
[8] = system: human recombinant KOP; parameters: method as in ref [44], [45] (C-33); conditions: ref [44], [45] (C-33), cited from earlier work; for KOP pEC50 (CL95%): calcium signaling via chimeric G proteins; for KOP α±SEM: maximal effect, calcium signaling
[9] = system: human recombinant MOP; conditions: cited from earlier work; for MOP pEC50 (CL95%): calcium signaling via chimeric G proteins, ref [44] (EM-2, DPDPE, Dyn A, F-81); for MOP pEC50 (CL95%) / MOP α±SEM: [45] (C-33); for MOP α±SEM: maximal effect, calcium signaling, ref [44]
[10] = molecular target: DOP; conditions: read-out: Ki DOP; [3H]deltorphin-2, human opioid receptor membranes; ref [44] (F-81), [45] (C-33); cited from earlier work
[11] = system: human recombinant DOP; parameters: method as in ref [44], [45] (C-33); conditions: ref [44], [45] (C-33), cited from earlier work; for DOP pEC50 (CL95%): calcium signaling via chimeric G proteins; for DOP α±SEM: maximal effect, calcium signaling
[12] = system: MOP/G-protein; conditions: BRET, [45] (C-33), cited from earlier work; for MOP/G-protein α±SEM: maximal effect, ref [44]; for MOP/G-protein pEC50 (CL95%): ref [44] (EM-2, F-81)
[13] = molecular target: KOP; parameters: method as in ref [44] (F-81), [45] (C-33); conditions: [3H]U-69593, human opioid receptor membranes; ref [44] (F-81), [45] (C-33); cited from earlier work

T1 sequence (P35372 whole entry): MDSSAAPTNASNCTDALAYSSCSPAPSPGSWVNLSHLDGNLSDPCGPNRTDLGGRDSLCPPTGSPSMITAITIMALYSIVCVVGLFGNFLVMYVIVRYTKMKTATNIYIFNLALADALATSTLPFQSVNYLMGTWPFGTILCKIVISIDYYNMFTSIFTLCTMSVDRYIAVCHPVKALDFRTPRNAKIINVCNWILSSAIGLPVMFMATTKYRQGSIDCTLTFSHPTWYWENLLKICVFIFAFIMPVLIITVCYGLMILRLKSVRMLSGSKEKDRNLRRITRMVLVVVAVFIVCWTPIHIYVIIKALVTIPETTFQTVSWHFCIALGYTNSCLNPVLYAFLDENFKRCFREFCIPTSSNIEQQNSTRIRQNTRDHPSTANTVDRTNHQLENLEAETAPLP
T1 sequence (P32121 whole entry partner): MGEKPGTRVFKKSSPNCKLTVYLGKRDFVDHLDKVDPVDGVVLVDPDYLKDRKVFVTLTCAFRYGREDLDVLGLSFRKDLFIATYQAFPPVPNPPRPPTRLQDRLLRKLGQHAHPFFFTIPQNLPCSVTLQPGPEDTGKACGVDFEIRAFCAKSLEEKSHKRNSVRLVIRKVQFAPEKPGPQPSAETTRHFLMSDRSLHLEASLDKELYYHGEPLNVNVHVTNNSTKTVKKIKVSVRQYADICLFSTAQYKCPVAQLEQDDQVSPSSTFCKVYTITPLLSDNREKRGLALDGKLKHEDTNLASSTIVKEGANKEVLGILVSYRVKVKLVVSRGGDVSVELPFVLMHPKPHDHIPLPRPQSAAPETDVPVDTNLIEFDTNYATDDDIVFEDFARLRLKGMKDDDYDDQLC
T2 sequence (P35372 whole entry): as the sequence (P35372 whole entry) above

| Compound | EC50 [2] [nM] | %Stim [2] | Enzymatic stability Area [%] 120 min DPP IV [3] [%] | Enzymatic stability Area [%] 120 min Homogenate [4] [%] | EC50 [5] [nM] | %Stim ([5]; CHO-hMOP) [%] | Ki [6] [nM] | MOP/β-arrestin 2 pEC50 (CL95%) ([7]; BRET, [45] (C-33)) | KOP pEC50 (CL95%) [8] | KOP α±SEM [8] | MOP pEC50 (CL95%) [9] | MOP α±SEM [9] | Ki [10] [nM] | DOP pEC50 (CL95%) [11] | MOP/G-protein α±SEM [12] | MOP/G-protein pEC50 (CL95%) [12] | Ki [13] [nM] | DOP α±SEM [11] | further results |
| --- | --- | --- | --- | --- | --- | --- | --- | --- | --- | --- | --- | --- | --- | --- | --- | --- | --- | --- | --- |
| COc1ccsc1CNCC[C@]1(c2ccccn2)CCOC2(CCCC2)C1 [(S)-TRV130] | – | – | – | – | – | – | – | – | – | – | – | – | – | – | – | – | – | – | G protein activation, less potent compared to its (R)-isomer [1]: 90 fold |
| Cc1cc(O)cc(C)c1C[C@H](N)C(=O)N[C@@H]1CCCCNC(=O)C[C@@H](C(N)=O)NC(=O)[C@H](Cc2ccccc2)NC1=O [C-33, Dmt-c[D-Lys-Phe-Asp]NH2] (H-[Dmt][dK]FD-NH2; lactam 2-4) | 2.51 | 156% and 156 ± 3 % | 91.1±4.21 | 89±2.27 | 0.0794 | 88 ± 3 | – | – | – | – | – | – | – | – | – | – | – | – | – |
| Cc1cc(O)cc(C)c1C[C@H](N)C(=O)N[C@@H]1CCCCNC(=O)C[C@@H](C(N)=O)NC(=O)[C@H](Cc2ccc(C(F)(F)F)cc2)NC(=O)[C@H](Cc2ccccc2)NC1=O [F-81, Dmt-c[D-Lys-Phe-p-CF3-Phe-Asp]NH2] (H-[Dmt][dK]F[Phe(4-CF3)]D-NH2; lactam 2-5) | 0.398 | 41% and 41 ± 15 % | 92.1±3.27 | 90.7±3.14 | 0.112 | 68 ± 1 | 2.4 | inactive | 8.22 | 0.63±0.04 | 8.19 | 0.8±0.05 | > 1000 | inactive | 0.82±0.04 | 8.28 | 31.1 | – | agonist behaviour, β-arrestin 2 recruitment (in words) ([2]; PathHunter, compared to EM-1): low efficacy partial agonist; receptor/β-arrestin interaction (in words) ([7]; BRET, ref [44]): did not promote receptor/β-arrestin interaction; higher potency than the reference EM-2 ([9]; calcium mobilization assay, MOP, ref [44],[45]): 2 fold; Class ([5]; CHO-hMOP, [35S]GTPγS binding): high efficacy partial agonist |
| DPDPE | – | – | – | – | – | – | – | – | inactive | – | inactive | – | – | 7.33 | – | – | – | 1.00 | – |
| Dyn A: reference agonist in calcium mobilization assay (KOP) | – | – | – | – | – | – | – | – | – | 1.00 | 6.67 | 0.83±0.10 | – | 7.73 | – | – | – | 0.99±0.04 | – |
| Tyr-Pro-Phe-Phe-NH2 (YPFF-NH2) [EM-2, reference compound] | – | – | 1.9±0.03 | 6.5±0.15 | – | – | 2.5 ± 0.05 | 7.20 | inactive | – | 7.83 | 1.00 | > 1000 | inactive | 1.00 | 7.32 | > 1000 | – | MOP/β-arrestin 2 α±SEM ([7]; BRET, maximal effect, ref [44], [45] (C-33)): 1.00; bias factor (CL95%) ([7]; calculated by using EM-2 as a standard unbiased ligand, ref [44], [45] (C-33)): 0.00 |
